The assay has as its system enteroendocrine STC1-1 cell line. Put plainly: In-vitro relative CCK release from enteroendocrine cells (Example 4, RIA). It is filed as cell-based. Conditions: 100 μM in free fatty acid form, 1 hour; for Relative amount of CCK released: measured in 6-fold. How it is done:
The relative CCK release by a number of different compounds was determined in vitro an in-vitro trial to measure the effect of various free fatty acids on CCK release from intestinal cells.
Cells were routinely passaged upon reaching 70-80% confluency by washing the cell layer with PBS and incubating with a solution of trypsin-EDTA. Plating density of 2×10^6 cells by 75 cm^2 was used for routine subculture.
STC1 cells were seeded into 6-well culture plates and incubated with control culture medium, with or without the tested agents, for 1 hour. All agents were tested at a 100 μM concentration in the free fatty acid form. Since fatty acids were diluted into ethanol the effect of ethanol was tested and indicated the baseline CCK levels. […] Effects of bombesin was used as positive control. At the end of incubation the supernatant was collected, centrifuged and immediately frozen at −20° C. for RIA.
Cell viability was checked by microscopic analysis, analyzing DNA content which was measured by fluorometry after extraction of the culture cell contents, and in addition LDH release was measured.
CCK release was measured using a standard CCK RIA and effects of fatty acids were measured in 6-fold.

SMILES strings stand for the structures.

For the molecule `CCCCCC=CC/C=C\CCCCCCCC(=O)O` [Linoleic acid 18:2, cis-9,12 octadecadienoic acid], the “Ability to induce CCK (in words)” value is reported as “not able to induce high amounts of CCK”, the “Level of CCK relative to negative control capric acid” value is recorded as “about 2 fold” and the “Relative amount of CCK released” value amounted to 68.
With `CCCCC/C=C\C/C=C\CCCC/C=C\CCCC(=O)O` [sciadonic acid], the “Ability to induce CCK (in words)” value is given as “not able to induce high amounts of CCK” and the “Level of CCK relative to negative control capric acid” value is “about 2 fold”.
In the case of `CC/C=C\C/C=C\C/C=C\CCCCCCCC(=O)O` [Alpha-linolenic acid 18:3, Alpha-linolenic acid], the “Ability to induce CCK (in words)” value is recorded as “good inducers of CCK” and the “Relative amount of CCK released” value amounted to 177.
Regarding `CC/C=C\C/C=C\C/C=C\CCCC/C=C\CCCC(=O)O` [juniperonic acid], the “Ability to induce CCK (in words)” value was “not able to induce high amounts of CCK” and the “Level of CCK relative to negative control capric acid” value is given as “about 2 fold”.
Take `CCCCC/C=C\C/C=C\C/C=C\CCCCC(=O)O` [Gamma-linolenic acid 18:3, Gamma-linolenic acid]: the “Ability to induce CCK (in words)” value is “good inducers of CCK” and the “Relative amount of CCK released” value is recorded as 140.
`CCCC\C=C/C=C/C=C\CCCCCCCC(=O)O` [Punicic acid 18:3, Punicic acid]: the “Ability to induce CCK (in words)” value was “good inducers of CCK” and the “Relative amount of CCK released” value stood at 320.
For the molecule `CCCCCCCC/C=C\CCCCCCCC(=O)O` [Oleic acid 18:1, cis-9 octadecenoic acid], the “Ability to induce CCK (in words)” value is on record as “not able to induce high amounts of CCK”, the “Level of CCK relative to negative control capric acid” value is “about 2 fold” and the “Relative amount of CCK released” value is listed as 90.
Take `CCCCCCCCC=CCC/C=C\CCCC(=O)O` [taxoleic acid, cis-5,9 octadecadienoic acid]: the “Ability to induce CCK (in words)” value is recorded as “not able to induce high amounts of CCK” and the “Level of CCK relative to negative control capric acid” value is “about 2 fold”.
For the molecule `CCCC/C=C/C=C/C=C\CCCCCCCC(=O)O` [Alpha-eleostearic acid 18:3, Alpha-eleostearic acid], the “Ability to induce CCK (in words)” value was “good inducers of CCK” and the “Relative amount of CCK released” value came out at 212.
For the molecule `CCCCCCCCCC(=O)O` [Capric acid], the “Relative amount of CCK released” value is on record as 43.

The values are drawn from patent US20060172023A1, “Use of pinolenic acid” (LODERS CROKLAAN B.V., priority 2005, published 2006).
